# “Also recorded” adds a separate entry of the source.
# Columns and labels:
# [1] = biological target: T1, purified recombinant mouse Nmnat (Mus musculus, UniProt Q9EPA7); assay: enzyme-coupled fluorometric assay, kinetic parameters for Nmnat; type: biochemical; conditions: substrate of Nmnat
# T1 construct: the purified full-length His-tagged Nampt and Nmnat recombinant proteins; made in house; host or cells: E. coli BL21(DE3)pLysS
# Experimental: (§1) Enzymatic activities of recombinant Nampt and Nmnat proteins were measured by an enzyme-coupled fluorometric assay (see e.g. FIG. 2A). In this enzyme-coupled reaction, NAD is converted to NADH by alcohol dehydrogenase, and the fluorescence of NADH is detected in a fluorometer. To establish this assay system, optimal reaction conditions for Nmnat were initially examined by varying ATP and Mg^2+ concentrations and pH of the reaction buffer. The resultant reaction buffer for Nmnat contained 50 mM HEPES [pH 7.4], 0.02% BSA, 12 mM MgCl2, 2 mM ATP, 1.5% ethanol, and 30 μg/ml alcohol dehydrogenase to convert NAD to NADH. To determine the kinetic parameters for Nmnat, 30 ng of purified His-tagged Nmnat and varying concentrations of NMN were added to 1 ml of the reaction buffer. The reactions were run at 37° C. and quenched at six time points by the addition of 250 μl of 0.5 M EDTA. The production of NADH was measured by excitation at 340 nm and emission at 460 nm in a fluorometer. […] NADH production was measured continuously in a fluorometer.
# [2] = system: NIH3T3 cells; assay: total cellular NAD levels by HPLC in NIH3T3 cells; type: cell-based, mouse; conditions: 5 mM added to the medium
# Experimental: Total cellular levels of NAD was measured in the NIH3T3 cell lines overexpressing the untagged enzymes. High performance liquid chromatography was used to measure NAD (Neubert et al., Biochim. Biophys. Acta. (1964) 92, 610-612; Emanuelli et al., J. Chromatogr. (1996) B. 676, 13-18). Briefly, 5×10^5 cells were plated in 6 cm dishes and harvested 48 h later in 800 μl of ice-cold PBS. Cells were then spun down and lysed with 300 μl of 1 M HClO4 on ice for 10 min. Lysates were cleared by centrifugating at 4° C. at 18,000 g for 5 minutes. Cleared lysates (240 μl) were neutralized by adding 80 μl of 3M K2CO3 and incubating on ice for 10 minutes. After centrifuging for 10 min, 100 μl of the supernatant were mixed with 400 μl of Buffer A and loaded onto the column. The HPLC was run at a flow rate of 1 ml/min with 100% Buffer A from 0 to 5 min, a linear gradient to 95% Buffer A and 5% Buffer B (100% methanol) from 5 to 6 min, 95% Buffer A and 5% Buffer B from 6 to 11 min, a linear gradient to 85% Buffer A and 15% Buffer B from 11 to 13 min, 85% Buffer A and 15% Buffer B from 13 to 23 min, and a linear gradient to 100% Buffer A from 23 to 24 min. NAD was eluted as a sharp peak at 22 min. The amount of NAD was quantitated based on the peak area compared to a standard curve.
# [3] = biological target: GAL4 DBD fused to the Sir2α catalytic core domain (GAL4 DBD-mCORE) (Mus musculus, UniProt Q923E4); conditions: 5 mM, added 24 h after transfection, NIH3T3 cells
# GAL4 DBD fused to the Sir2α catalytic core domain (GAL4 DBD-mCORE), sequence (Q923E4 with tags, fused parts or gaps): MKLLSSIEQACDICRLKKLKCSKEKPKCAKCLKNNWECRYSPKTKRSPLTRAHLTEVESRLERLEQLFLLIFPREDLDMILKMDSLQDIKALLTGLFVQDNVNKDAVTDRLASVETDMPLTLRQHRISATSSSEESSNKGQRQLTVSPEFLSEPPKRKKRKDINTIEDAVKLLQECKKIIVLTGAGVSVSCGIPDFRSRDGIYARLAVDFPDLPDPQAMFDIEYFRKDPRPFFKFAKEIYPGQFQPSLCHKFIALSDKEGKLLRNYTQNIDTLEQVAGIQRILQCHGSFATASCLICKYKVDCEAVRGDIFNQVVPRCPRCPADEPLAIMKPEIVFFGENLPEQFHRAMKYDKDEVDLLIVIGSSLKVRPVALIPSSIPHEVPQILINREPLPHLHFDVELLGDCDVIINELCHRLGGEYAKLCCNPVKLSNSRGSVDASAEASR
# Experimental: A reporter gene transcription assay using a GAL4 DNA binding domain (GAL4 DBD) fusion system was developed to monitor the transcriptional regulatory activity of the mouse Sir2 ortholog, Sir2α. […] This assay system used the GAL4 DBD fused to the Sir2α catalytic core domain (GAL4 DBD-mCORE) and a luciferase reporter that has a thymidine kinase minimal promoter and four GAL4 binding sites.
# For the luciferase assay, 1.2×10^5 NIH3T3 cells were plated in 6 cm dishes. 24 h after plating, cells were transfected for 3 h with 380 ng of pUAS4tk-luc as a reporter, 1.5 μg of pM or pM-GAL4 DBD-mCORE as an effector, and 38 ng of pRL-SV40 (Promega, Wis.) as a normalization control by using Superfect (Qiagen). Transfectants were harvested 48 h after transfection, and luciferase activity was measured with the Dual-Luciferase Reporter Assay System (Promega, Wis.) and a SIRIUS luminometer (Berthold Detection Systems, Germany) according to the manufacturers' protocols. Background luminescence was subtracted and was always less than 1% of measured values. Transfection efficiencies were normalized based on Renilla luciferase activities. […] To examine the effects of Nampt and Nmnat on the transcriptional repressive activity of GAL4 DBD-mCORE, NIH3T3 cells were co-transfected with indicated amounts of Nampt and Nmnat expression vectors along with reporter, effector and normalization control plasmids.
# [4] = biological target: T2, purified recombinant mouse Nampt (Mus musculus, UniProt Q99KQ4); assay: enzyme-coupled fluorometric assay, kinetic characterization of Nampt; type: biochemical; conditions: substrate of Nampt
# T2 construct: the purified full-length His-tagged Nampt and Nmnat recombinant proteins; made in house; host or cells: E. coli BL21(DE3)pLysS
# T2 sequence (Q99KQ4 whole entry): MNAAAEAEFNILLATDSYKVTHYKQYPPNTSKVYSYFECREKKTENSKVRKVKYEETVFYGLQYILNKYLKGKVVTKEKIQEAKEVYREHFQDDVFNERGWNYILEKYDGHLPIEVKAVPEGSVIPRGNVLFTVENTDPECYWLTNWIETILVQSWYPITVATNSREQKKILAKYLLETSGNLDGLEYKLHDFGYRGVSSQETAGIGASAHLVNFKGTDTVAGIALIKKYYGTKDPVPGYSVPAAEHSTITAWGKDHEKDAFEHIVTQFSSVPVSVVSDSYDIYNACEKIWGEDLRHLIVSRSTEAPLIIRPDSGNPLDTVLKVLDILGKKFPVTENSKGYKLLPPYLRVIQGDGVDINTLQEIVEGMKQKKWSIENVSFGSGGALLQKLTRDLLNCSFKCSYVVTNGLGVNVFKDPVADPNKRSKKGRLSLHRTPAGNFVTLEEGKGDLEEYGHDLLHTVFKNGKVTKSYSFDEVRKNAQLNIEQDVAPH
# Experimental: as §1
# T1 sequence (Q9EPA7 whole entry): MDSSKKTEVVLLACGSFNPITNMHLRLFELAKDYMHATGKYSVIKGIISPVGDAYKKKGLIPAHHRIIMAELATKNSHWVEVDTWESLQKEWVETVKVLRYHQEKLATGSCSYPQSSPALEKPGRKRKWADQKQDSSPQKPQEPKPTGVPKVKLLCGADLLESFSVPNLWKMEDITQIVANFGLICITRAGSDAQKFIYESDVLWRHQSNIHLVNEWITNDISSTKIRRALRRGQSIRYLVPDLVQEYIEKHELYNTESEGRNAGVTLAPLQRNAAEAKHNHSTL
SMILES,Kcat [1] [s⁻¹],Vmax [1] [µmol/min/mg],"Km ([1]; 37° C., pH 7.4) [µM]",effect on total cellular NAD [2],effect on transcriptional repressive activity of GAL4 DBD-mCORE [3],Kcat [4] [s⁻¹],Vmax [4] [µmol/min/mg]
"NC(=O)c1ccc[n+]([C@@H]2O[C@H](COP(=O)([O-])O)[C@@H](O)[C@H]2O)c1 [NMN, nicotinamide mononucleotide]",20.0,34.1,20.1,,,,
"NC(=O)c1cccnc1 [Nicotinamide, 3-pyridinecarboxamide]",,,,did not increase NAD; also recorded: unable to increase NAD,abolished,0.020,0.021
O=C(O)c1cccnc1 [nicotinic acid],,,,,not,,

# Reference: patent publication US8268575B2, “NAD biosynthesis systems” (Washington University, priority 2004, dated 2012)
